Key:
[1] = Stability in simulated intestinal fluid; format: in vitro ADME; conditions: 2 μM peptidomimetic, simulated intestinal fluid pH 7.5, 37° C.; for half-life at 2 μM: read-out: half-life (t1/2) when incubated with simulated intestinal fluid
Method: (§1) Reactions were terminated by the addition of TFA/H2O (15 mL, 10% (v/v)). […] The column was equilibrated with TFA/H20, at a flow rate of 1 mL/min.

DPP IV = DPP IV (Homo sapiens, UniProt P27487); test: Stability against DPP IV enzyme; format: in vitro ADME; conditions: 37° C.; for % degradation of peptidomimetics in 24 h when incubated with DPP-IV enzyme: 2 μM peptidomimetic; for half-life at 2 μM: DPP IV enzyme, pH 7.8, 2 μM peptidomimetic, read-out: half-life (t1/2) when incubated with DPP-IV enzyme
Method: as §1

[2] = Stability in human plasma; format: in vitro ADME; conditions: 2 μM peptidomimetic, pooled human plasma, 37° C.; for half-life at 2 μM: pH 7.8, read-out: half-life (t1/2) when incubated with human plasma
Method: as §1

Human GLP-1 receptor = target: T1, Human GLP-1 receptor (Homo sapiens, UniProt P43220); test: In vitro Human GLP-1 R agonist activity (cyclic AMP determination) in CHO/human GLP1R cells; format: cell-based
T1 construct: The full-length cDNA was cloned in pcDNA3.1(+); expressed in transfected cells
Method: The novel peptidomimetics were screened for Human GLP-1 receptor (HGLP-1 R) agonist activity (in vitro), using the cAMP cell-based assay, in stably transfected CHO/human GLP1R cells. […] CHO cells were grown in Ham's F12 medium containing L-Glutamine (2 mM), HEPES (25 mM), NaHCO3 (1.1 g/L) and supplemented with NewBorn Calf Serum (NBCS; 10%), Penicillin (50 U/ml (v/v)) and Streptomycin (50 ug/ml (v/v)). Cells were split every 3 days 1:8.
The cDNA encoding the human GLP-1 receptor was isolated by RT-PCR according to standard protocol. The full-length cDNA was cloned in pcDNA3.1(+). […] Clones expressing the receptor were generated by G418 (800 μg/ml active, Sigma) selection. The stable clones were thereafter maintained at 500 ug/ml (G418). The selected clone was used between passages 9-25 for cAMP assays.
The trypsin was inactivated using Ham's F12 medium containing 10% NBCS and the cells were suspended in 2 ml of complete medium. […] The medium was aspirated off from the 12 well plate and the cells were washed once using Ham's F12 (plain). […] The cells were incubated with the test compounds for 30 min in humidified atmosphere and 37° C. After the incubation, the medium was removed and cells were washed once with plain Ham's F12. Subsequently, the cells were lysed by adding 500 ul of ice cold 0.1 N HCl to each well and shaking for 30 minutes at 200 rpm. The cells were then scrapped, the lysate was collected in micro centrifuge tubes and centrifuged at 12000 rpm for 10 min to remove the debris. 300 ul of supernatant from each micro-centrifuge tube was then removed into a glass tube and dried under N2 for 30 min, for cAMP estimation. The total cAMP was estimated from the sample according to the manufacturer's protocol using Cyclic AMP immunoassay kit (R&D systems, Minneapolis. MN). The remaining supernatant is used to determine the protein concentration using micro BCA (Sigma). Data is calculated as percent of control (Vehicle: water) and expressed as Mean±SD.

human glucagon receptor = target: T2, human glucagon receptor (Homo sapiens, UniProt P47871); test: In vitro human glucagon antagonist activity (inhibition of cAMP production) in CHO/human glucagon R cells; format: cell-based; conditions: with saturated concentration of glucagon peptide
T2 construct: The full-length cDNA was cloned in pcDNA3.1 (Invitrogen); expressed in transfected cells

[3] = Stability in liver microsomes; format: in vitro ADME; conditions: 2 μM peptidomimetic, human liver microsomes, 37° C.; for half-life at 2 μM: pH 7.8, read-out: half-life (t1/2) when incubated with liver microsomes
Method: as §1

[4] = Stability in simulated gastric fluid; format: in vitro ADME; conditions: 2 μM peptidomimetic, simulated gastric fluid pH 1.5, 37° C.; for half-life at 2 μM: read-out: half-life (t1/2) when incubated with simulated gastric fluid
Method: as §1

T1 sequence (P43220 24-463): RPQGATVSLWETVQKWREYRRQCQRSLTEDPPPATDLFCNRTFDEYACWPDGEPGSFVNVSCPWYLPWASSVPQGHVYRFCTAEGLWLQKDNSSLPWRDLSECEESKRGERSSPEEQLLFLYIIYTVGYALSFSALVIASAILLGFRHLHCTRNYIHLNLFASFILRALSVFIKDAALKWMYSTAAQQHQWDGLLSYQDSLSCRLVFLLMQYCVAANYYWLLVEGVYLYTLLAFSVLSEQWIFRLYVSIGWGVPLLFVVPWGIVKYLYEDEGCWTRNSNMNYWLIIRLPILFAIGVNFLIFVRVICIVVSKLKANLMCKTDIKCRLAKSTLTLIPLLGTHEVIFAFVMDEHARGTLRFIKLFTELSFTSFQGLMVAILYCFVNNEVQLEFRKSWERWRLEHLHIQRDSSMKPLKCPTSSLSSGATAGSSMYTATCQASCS
T2 sequence (P47871 26-477): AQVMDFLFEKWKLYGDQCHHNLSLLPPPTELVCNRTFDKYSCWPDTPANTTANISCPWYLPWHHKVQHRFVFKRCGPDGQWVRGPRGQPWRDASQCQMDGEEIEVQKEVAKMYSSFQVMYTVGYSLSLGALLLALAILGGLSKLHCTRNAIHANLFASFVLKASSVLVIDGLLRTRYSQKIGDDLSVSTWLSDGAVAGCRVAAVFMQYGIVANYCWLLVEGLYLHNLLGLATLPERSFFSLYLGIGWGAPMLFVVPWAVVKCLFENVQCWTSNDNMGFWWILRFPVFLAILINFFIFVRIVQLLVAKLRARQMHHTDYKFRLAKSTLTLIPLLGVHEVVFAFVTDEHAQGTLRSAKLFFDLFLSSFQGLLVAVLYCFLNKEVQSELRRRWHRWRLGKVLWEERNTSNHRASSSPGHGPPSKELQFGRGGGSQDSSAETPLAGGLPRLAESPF
Chain of DPP IV (P27487 whole entry, species assumed): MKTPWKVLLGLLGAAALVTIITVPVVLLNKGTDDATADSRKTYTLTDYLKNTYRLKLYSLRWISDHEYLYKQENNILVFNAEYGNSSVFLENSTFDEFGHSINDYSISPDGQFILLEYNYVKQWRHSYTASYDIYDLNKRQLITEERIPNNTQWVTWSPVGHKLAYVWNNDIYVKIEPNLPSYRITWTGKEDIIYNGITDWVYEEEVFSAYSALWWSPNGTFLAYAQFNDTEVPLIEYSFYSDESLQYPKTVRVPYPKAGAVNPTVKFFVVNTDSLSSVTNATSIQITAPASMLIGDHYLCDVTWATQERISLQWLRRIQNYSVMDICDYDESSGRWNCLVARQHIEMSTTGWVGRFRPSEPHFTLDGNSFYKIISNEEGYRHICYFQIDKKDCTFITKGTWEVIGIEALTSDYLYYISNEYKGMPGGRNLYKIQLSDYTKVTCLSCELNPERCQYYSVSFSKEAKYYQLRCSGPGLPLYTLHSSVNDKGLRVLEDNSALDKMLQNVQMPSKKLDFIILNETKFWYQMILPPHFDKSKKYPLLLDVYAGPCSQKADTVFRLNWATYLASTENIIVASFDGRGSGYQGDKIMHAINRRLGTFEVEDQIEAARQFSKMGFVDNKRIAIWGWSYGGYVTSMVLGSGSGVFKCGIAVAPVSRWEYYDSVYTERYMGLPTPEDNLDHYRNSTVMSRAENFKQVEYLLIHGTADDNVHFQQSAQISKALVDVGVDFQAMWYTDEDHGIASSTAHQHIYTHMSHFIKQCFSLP

Row | SMILES | half-life (t1/2) when incubated with simulated intestinal fluid [1] | % degradation of peptidomimetics in 24 h when incubated with simulated intestinal fluid [1] | % degradation of peptidomimetics in 24 h when incubated with DPP-IV enzyme (DPP IV) | half-life at 2 μM (DPP IV) | % degradation of peptidomimetics in 24 h when incubated with human plasma [2] | half-life at 2 μM [2] | Human GLP-1 R activity (cAMP release), % activity with respect to control (Human GLP-1 receptor; 1 nM test compound) | Human GLP-1 R activity (cAMP release), % activity with respect to control (Human GLP-1 receptor; 10 nM test compound) | Human GLP-1 R activity (cAMP release), % activity with respect to control (Human GLP-1 receptor; 100 nM test compound) | Human GLP-1 R activity (cAMP release), % activity with respect to control (Human GLP-1 receptor; 1 μM test compound) | Human GLP-1 R activity (cAMP release), % activity with respect to control (Human GLP-1 receptor; 10 μM test compound) | Human Glucagon receptor antagonistic activity shown as inhibition of cAMP production of Glucagon peptide (human glucagon receptor; 1 nM test compound) | Human Glucagon receptor antagonistic activity shown as inhibition of cAMP production of Glucagon peptide (human glucagon receptor; 10 nM test compound) | Human Glucagon receptor antagonistic activity shown as inhibition of cAMP production of Glucagon peptide (human glucagon receptor; 100 nM test compound) | Human Glucagon receptor antagonistic activity shown as inhibition of cAMP production of Glucagon peptide (human glucagon receptor; 1 μM test compound) | Human Glucagon receptor antagonistic activity shown as inhibition of cAMP production of Glucagon peptide (human glucagon receptor; 10 μM test compound) | % degradation of peptidomimetics in 24 h when incubated with liver microsomes [3] | half-life at 2 μM [3] | half-life (t1/2) when incubated with simulated gastric fluid [4] | % degradation of peptidomimetics in 24 h when incubated with simulated gastric fluid [4] | further results
1 | CCc1cc(OC)ccc1-c1ccc(CC(NC(=O)[C@H](CC(=O)O)NC(=O)[C@H](CO)NC(=O)[C@@H](NC(=O)[C@H](Cc2ccccc2)NC(=O)[C@@H](NC(=O)CNC(=O)[C@H](CCC(N)=O)NC(=O)C(C)(C)NC(=O)[C@@H](N)Cc2c[nH]cn2)[C@@H](C)O)[C@@H](C)O)C(=O)NC(CCCc2cccc(Cl)c2)C(N)=O)cc1 (single isomer, unassigned) [compound 19] | (6) h | 41% | 86% | 9 h | 70% | 8 h | 99 ± 0.12% | 99 ± 0.08% | 99 ± 0.11% | 99 ± 0.12% | 99 ± 0.16% | 0 pmol/ml/μg prt | 0 pmol/ml/μg prt | 0 pmol/ml/μg prt | 0 pmol/ml/μg prt | 0 pmol/ml/μg prt | 77% | 1 h | (8) h | 15% | –
2 | CCc1cc(OC)ccc1-c1ccc(CC(NC(=O)[C@H](CC(=O)O)NC(=O)[C@H](CO)NC(=O)[C@@H](NC(=O)[C@H](Cc2ccccc2)NC(=O)[C@@H](NC(=O)CNC(=O)[C@H](CCC(N)=O)NC(=O)C2(NC(=O)[C@@H](N)Cc3c[nH]cn3)CC2)[C@@H](C)O)[C@@H](C)O)C(=O)NC(CCCc2ccc(F)cc2C(F)(F)F)C(N)=O)cc1 (single isomer, unassigned) [compound 72] | (6) h | 41% | 86% | 9 h | 70% | 8 h | 45 ± 0.022% | 84 ± 0.46% | 90 ± 0.41% | 99 ± 0.66% | 99 ± 0.03% | 9 ± 0.11 pmol/ml/μg prt | 6 ± 0.12 pmol/ml/μg prt | 5 ± 0.14 pmol/ml/μg prt | 3 ± 0.22 pmol/ml/μg prt | 0 pmol/ml/μg prt | 77% | 1 h | (8) h | 15% | –
3 | CCc1cc(OC)ccc1-c1ccc(CC(C(=O)N(C)C(CCCc2ccccc2F)C(N)=O)N(C)C(=O)[C@H](CC(=O)O)NC(=O)[C@H](CO)NC(=O)[C@@H](NC(=O)C(C)(Cc2ccccc2F)NC(=O)[C@@H](NC(=O)CNC(=O)C(CCC#N)NC(=O)C(C)(C)NC(=O)[C@@H](N)Cc2c[nH]cn2)[C@H](C)O)[C@H](C)O)cc1 (single isomer, unassigned) [compound 144] | (6) h | 43% | 76% | 9 h | 78% | 8 h | 55 ± 0.16% | 89 ± 0.05% | 93 ± 0.09% | 99 ± 0.02% | 99 ± 0.04% | 5 ± 0.09 pmol/ml/μg prt | 3 ± 0.11 pmol/ml/μg prt | 0 pmol/ml/μg prt | 0 pmol/ml/μg prt | 0 pmol/ml/μg prt | 80% | 1 h | (8) h | 14% | –
4 | CCc1cc(OC)ccc1-c1ccc(CC(CNC(CCCc2ccccc2F)C(N)=O)NC[C@H](CC(=O)O)NC(=O)[C@H](CO)NC(=O)[C@@H](NC(=O)C(C)(Cc2ccccc2F)NC(=O)[C@@H](NC(=O)CNC(=O)[C@H](CCC(N)=O)NC(=O)C(C)(C)NC(=O)[C@@H](N)Cc2c[nH]cn2)[C@H](C)O)[C@H](C)O)cc1 (single isomer, unassigned) [compound 203] | – | 00% | 00% | > 24 h | 00% | > 24 h | 86 ± 0.11% | 99 ± 0.09% | 99 ± 0.06% | 99 ± 0.14% | 99 ± 0.19% | – | – | – | – | – | 31% | – | – | 00% | half-life at 2 μM [1]: > 24 h; half-life (t1/2) when incubated with liver microsomes [3]: (5) h; half-life at 2 μM [4]: > 24 h
5 | CCc1cc(OC)ccc1-c1ccc(CC(NC(=O)[C@H](CC(=O)O)NC(=O)[C@H](CO)NC(=O)[C@@H](NC(=O)C(C)(Cc2ccccc2F)NC(=O)[C@@H](NC(=O)CNC(=O)[C@H](CC(C(F)(F)F)C(F)(F)F)NC(=O)C(C)(C)NC(=O)[C@@H](N)Cc2c[nH]cn2)[C@@H](C)O)[C@H](C)O)C(=O)NC(CCCc2ccccc2F)C(N)=O)cc1 (single isomer, unassigned) [compound 224] | – | 00% | 00% | > 24 h | 00% | > 24 h | 99 ± 0.06% | 99 ± 0.06% | 99 ± 0.08% | 99 ± 0.10% | 99 ± 0.12% | – | – | – | – | – | 26% | – | – | 00% | half-life at 2 μM [1]: > 24 h; half-life (t1/2) when incubated with liver microsomes [3]: (5) h; half-life at 2 μM [4]: > 24 h

Reference: patent US8883963B2 (Cadila Healthcare Limited, priority 2007, dated 2014)
